# Results taken from patent publication US20130210907A1, “METHOD FOR PREVENTING OR TREATING ENTEROCHROMAFFIN CELL HYPERPLASIA-RELATED DISEASES BY QUERCETIN ADMINISTRATION” (HONG KONG BAPTIST UNIVERSITY, priority 2012, published 2013).
# Columns and labels:
# Type in all cases: in vivo, rat
# [1] = test system: PI-IBS rats; test: Mechanical stimuli (CRD)-induced 5-HT release: colonic 5-HT content with or without CRD
# Method: (§1) 5-HT content in the colon tissue is assayed based on our previously reported procedure in Qi S D, Tian S L, Xu H X, Sung J J, Bian Z X. Quantification of luminally released serotonin in rat proximal colon by capillary electrophoresis with laser-induced fluorescence detection. Anal Bioanal Chem. 2009 April; 393(8):2059-66. Briefly, the colon segment is homogenized in 15% iced trichloroacetic acid; for 2 min and stored at 4° C. for 2 h. After centrifuge at 10,000 G for 15 min, the supernatant of each sample is filtered using 0.22 μm filters and extracted with diethyl ether for five times to remove the trichloroacetic acid. The prepared samples are added to derivatization solution (150 mM sodium tetraborate, 25% acetonitrile, 2 mM CFSE) and incubated for […] in dark at room temperature. The 5-HT content is analyzed by capillary electrophoresis with laser-induced fluorescence detection and expressed as nanogram per milligram (wet weight of tissue).
# To determine whether mechanical stimuli (CRD) can induce colonic 5-HT release in PI-IBS rats, and whether Quercetin has effect on it, 5-HT content in colonic tissue is evaluated in rats with or without AWR test. The colon tissues for 5-HT content determination are collected from the rats from Example 1 and Example 2, and the methods for 5-HT content determination are followed as described in Example 2.
# [2] = test system: PI-IBS rats; test: Colonic tissue 5-HT content (capillary electrophoresis, laser-induced fluorescence); details: 30 mg/kg i.g.
# Method: (§2) Six groups of 5 rats are tested. The groups setting and treatments are as described in Example 1. Different from Example 1, AWR test are not applied to the rats in this experiment in order to obtain the basal data without CRD stimulus. After the last drug administration, a 6 cm proximal colon (1-2 cm from caecum) is collected and divided into 3 parts, the proximal is fixed in 4% paraformaldehyde and embedded in paraffin for EC cell staining; the middle part is collected for 5-HT content measurement and electron microscopic evaluation, and the distal part is for western blotting analysis.
# as §1
# [3] = test system: PI-IBS rats; test: Colonic EC cell counting (silver staining); details: 30 mg/kg i.g.
# Method: as §2
# Tissue sections (5-μm thick) are deparaffinized and rehydrated for silver staining. Briefly, sections are incubated with 5% ammoniacal silver solution for 4 h at room temperature, then 2 h in 56° C. and subsequently 12 h at room temperature in a dark humidified chamber. After rinsing with water, 5% sodium hyposulfite is added and the tissue sections are incubated for 5 min at room temperature. The brown to black silver precipitate in the cytoplasm of EC cells represents as a positive reaction. A researcher blinded to treatment counted 5 random fields at 200× magnifications for each section, and the number of EC cells per mm^2 of mucosa is quantified using Image J NIH software.
# [4] = test system: PI-IBS rats; test: Abdominal withdrawal reflex (AWR) test: pain threshold pressure to colorectal distension
# Method: Sprague-Dawley male rats (Laboratory Animal Services Centre, The Chinese University of Hong Kong) aged 6 weeks with body weight around 220 g are used to develop PI-IBS model. Briefly, rats are fasted for 24 h, and deeply anesthetized with chloral hydrate (350 mg.kg^−1, i.p.). After induction of colitis by 2,4,6-trinitrobenzenesulfonic acid solution (TNBS, 5 mg/0.8 ml/rat, in 50% ethanol, 8 cm from anus) administration, the rats are allowed to recover for at least 4 weeks before use. The control rats are similarly administered with 0.8 ml saline instead of TNBS. Only the rats that have completely recovered from the initial inflammation and acquired visceral hypersensitivity are used as the PI-IBS rats.
# 6 groups of 12 rats are tested. Normal rats (Group 1) are treated with water. PI-IBS rats are randomly divided into 5 groups and orally treated with water (Group 2), Doxantrazole (mast cell stabilizer, 30 mg/kg/d, Group 3), and Quercetin (Group 4-6) at the dose of 5, 10, and 20 mg/kg/d, respectively. After 2 weeks daily drug administration, 5 rats in each group are used to measure pain threshold pressure by abdominal withdrawal reflex (AWR) test, and the remaining […] is used for electromyography (EMG) recording.
# AWR test is performed as previously described in Al-Chaer E D, Kawasaki M, Pasricha P J. A new model of chronic visceral hypersensitivity in adult rats induced by colon irritation during postnatal development. Gastroenterology. 2000 November; 119(5):1276-85. Briefly, rats are lightly anesthetized with ether; a latex balloon is inserted into the descending colon. Rats are then allowed to recover for about 1 h. The tube of the balloon is connected via a Y-connector to a sphygmomanometer and colorectal distension is applied in increments of 5 mmHg until a visible contraction of the abdominal wall is observed by an investigator blinded to the treatment. The pain threshold pressure is defined as the intensity of colorectal distension (CRD) that elicited an observable AWR, i.e. a sudden and persistent abdominal muscle contraction with abdomen lift off the platform. The pain threshold pressure of all groups is recorded and repeated five times with intervals of at least 5 minutes for recovery. EMG recording are conducted as previously described in Tammpere A, Brusberg M, Axenborg J, Hirsch I, Larsson H, Lindstrom E. Evaluation of pseudo-affective responses to noxious colorectal distension in rats by manometric recordings. Pain. 2005 August; 116(3):220-6 and Li Z, Zhang X J, Xu H X, Sung J J, Bian Z X. Intracolonical administration of protease-activated receptor-2 agonists produced visceral hyperalgesia by up-regulating serotonin in the colon of rats. Eur J. Pharmacol. 2009 Mar. 15; 606(1-3):199-204. Firstly, a surgical operation is made to implant the electrodes into the left external abdominal oblique muscles 7 days before EMG recording. After the last drug administration, a flexible latex balloon is inserted into the rat descending colon, and the rats are allowed to accommodate for 1 h. CRD is initiated, and the EMG signal is amplified and filtered by Power Lab System. Graded colorectal distension (20, 40, 60, and 80 mmHg; 20 s duration; 2 min inter-stimulus interval) is carried out for total three cycles to each rat. The changes of area under the curve (AUC) are calculated using that during 20 s distension period over the 20 s baseline.
compound,measurement,setting,value
"O=C1c2ccccc2S(=O)(=O)c2cc(-c3nnn[nH]3)ccc21 [Doxantrazole, reference compound]","5-HT content of tissue, +CRD","[1]; 30 mg/kg i.g., after CRD",2.62 ± 0.30 ng/mg
same,"5-HT content of tissue, -CRD","[1]; 30 mg/kg i.g., without CRD",5.75 ± 0.44^ ng/mg
same,Decrease of colon tissue 5-HT content after CRD application,"[1]; 30 mg/kg, p<0.05",~54.4%
same,Effect on colonic 5-HT content in PI-IBS rats,[2],no marked effects
same,5-HT content,"[2]; PI-IBS rats, colon",5.75 ± 0.44^ ng/mg
same,Effect on colonic EC cells number in PI-IBS rats,[3],no marked effects
same,EC cell density,"[3]; PI-IBS rats, colon",95 ± 10 Number/mm^2
same,"Pain threshold pressure, after treatment","[4]; 30 mg/kg i.g. daily, 2 weeks",29 ± 1.2 mmHg
same,"Pain threshold pressure, before treatment","[4]; 30 mg/kg i.g. group, before treatment",25 ± 1.3 mmHg
